Measured values: US11447531B2, “Cleavable peptides and insecticidal and nematicidal proteins comprising same” (Vestaron Corporation, priority 2016, dated 2022)

target: T1, pepsin or simulated human gastric fluid (SGF) (Sus scrofa, UniProt P00791); test: not given; format: biochemical; details: not given
T1 construct: purchased Sigma P6887
T1 sequence (P00791 60-385): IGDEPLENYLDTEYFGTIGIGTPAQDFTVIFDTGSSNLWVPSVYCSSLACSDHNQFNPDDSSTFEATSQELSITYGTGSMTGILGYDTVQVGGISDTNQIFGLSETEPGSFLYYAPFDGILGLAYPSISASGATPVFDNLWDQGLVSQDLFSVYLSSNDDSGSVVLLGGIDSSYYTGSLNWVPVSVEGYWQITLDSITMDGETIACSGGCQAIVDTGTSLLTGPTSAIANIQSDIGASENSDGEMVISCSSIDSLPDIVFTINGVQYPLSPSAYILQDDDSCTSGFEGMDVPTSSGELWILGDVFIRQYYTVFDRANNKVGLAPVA

| Substance | % of Max Slope | % of Max Slope, Y | SGF cleavage (in words) | cleavability by human gastrointestinal proteases |
| --- | --- | --- | --- | --- |
| ALF | 78% |  |  |  |
| FFV | 84% |  |  |  |
| YFV | 84% |  |  |  |
| VLF | 78% |  |  |  |
| YYL | 78% |  |  |  |
| VLY | 78% |  |  |  |
| FYI | 78% |  |  |  |
| ILF | 63% |  |  |  |
| LYV | 65% |  |  |  |
| VYF | 63% |  |  |  |
| YFL | 78% |  |  |  |
| LFA | 65% |  |  |  |
| IFA | 65% |  |  |  |
| DYF | 66% |  |  |  |
| DFY | 66% |  |  |  |
| IIF | 63% |  |  |  |
| LKLFVGS (cleavable linker) |  | 67% |  |  |
| VFY | 63% |  |  |  |
| FYL | 78% |  |  |  |
| EFF | 66% |  |  |  |
| DFF | 66% |  |  |  |
| FFA | 84% |  |  |  |
| EFY | 66% |  |  |  |
| LYF | 100% |  |  |  |
| LYA | 65% |  |  |  |

| Substance | % of Max Slope | % of Max Slope, Y | SGF cleavage (in words) | cleavability by human gastrointestinal proteases |
| --- | --- | --- | --- | --- |
| LIY | 63% |  |  |  |
| EYF | 66% |  |  |  |
| FFI | 78% |  |  |  |
| AFY | 63% |  |  |  |
| LYY | 100% |  |  |  |
| YFI | 78% |  |  |  |
| AFF | 63% |  |  |  |
| YFA | 84% |  |  |  |
| FYV | 84% |  |  |  |
| ALY | 78% |  |  |  |
| AIF | 78% |  |  |  |
| ILY | 63% |  |  |  |
| LLF | 63% |  |  |  |
| AYF | 63% |  |  |  |
| VIF | 78% |  |  |  |
| ALKLFV (cleavable linker) |  |  | rapid |  |
| IFV | 65% |  |  |  |
| LIF | 63% |  |  |  |
| AAPF [reference compound] |  |  |  | neither FRET nor protein showed any cleavability |
| IFVRLR (cleavable linker) |  |  | rapid |  |
| LFV | 65% |  |  |  |
| FYA | 84% |  |  |  |
| FFL | 78% |  |  |  |
| VFF | 63% |  |  |  |

system: insect and/or nematode protease (X condition); test: Round 2 and spacer FRET cleavage, X (insect) cleavage condition; format: biochemical; details: Round 2 FRET, X-Y combinations
Experimental: Round 2 data from FRET molecules that represented a subset of binary combinations based on the observed top hits in Round 1 provided a hierarchical ranking of the various binary combinations. Round 2 FRET molecules were synthesized, resuspended, and tested in cleavage enzyme assays as described above in Round 1. Many combinations of binary cleavable linking peptides were tested against LEP, COLEOP and SGF conditions.
Data from the Round 2 FRET that exemplifies the combination of both X and Y cleavability in a binary or tertiary peptide are presented in Table 6.
To screen for potential spacers, FRET peptides were ordered as the binary peptide ALKLFVZ1Z2 and varied amino acids in positions Z1 and Z2. Some of the amino acids were screened as individuals and some were screened as pools. The peptides were re-suspended using 50% acetonitrile in water at a concentration of 2 μM of each peptide. For the one containing more than one FRET peptide, they were re-suspended so that each peptide was as 2 μM (assuming an equal portion of each one). These were then re-suspended and screened as described above for Round 1. The data does confirm that some amino acids in the Z position are more favorable than others. […] The greater the value of the slope in Table 7 the greater the activity of the amino acid when part of a spacer. The column in Table 7 labeled “Slope” indicates the speed of cleavage of the Linker.

| Substance | % of Max Slope, X |
| --- | --- |
| LKLFVGS (cleavable linker) | 98% |

system: gut enzymes of Corn Earworm; test: FRET peptide cleavage by lepidopteran gut enzymes (LEP); format: biochemical, Helicoverpa zea; details: LEP (X); pooled FRET screening Round 1; slope of fluorescence over 10 minutes, steepest slope = 100%; representative cleavable sequences
Excerpt: Corn Earworm insects were obtained commercially from Benzon Research (Carlisle, Pa.) as eggs. Hatched larvae were raised on artificial diet until ⅘^th instar (20 mm long) before guts were isolated. Before gut extract, larvae were anesthetized using CO2. The larva was then pinned on the dissection plate at both the head and the tail. Using dissection scissors, the cuticle was nicked. The dissection scissors were then inserted into the nick and the […] along the insect. The cuticle was then carefully pulled back and pinned open to reveal the digestive track. Using DI water, the insect was thoroughly rinsed to remove hemolymph. The gut was then excised with tweezers and placed in a solution of 500 μL of 200 mM Tris-HCl pH 8.1 150 mM NaCl (assay buffer). The tube was pre-weighed and post-weighed to calculate the total amount of gut added. CEW gut was diluted to a stock concentration of 7 mg/ml (10×) in 200 mM Tris-HCl pH 8.1 150 mM NaCl. This was diluted fresh each plate by 20× with the assay buffer.

| Substance | % of Max Slope |
| --- | --- |
| AKS | 90% |
| RTR | 90% |
| RRS | 93% |
| AKF | 93% |
| ISR | 89% |
| KTK | 90% |
| VRS | 90% |
| VRT | 90% |
| ARF | 93% |
| RKT | 93% |
| KTR | 90% |
| KKF | 92% |
| VRY | 93% |
| KSR | 90% |
| RKY | 92% |
| VKY | 93% |
| LTR | 89% |
| KRY | 92% |
| KRS | 93% |
| ARS | 90% |
| RRY | 92% |
| ARY | 93% |
| ART | 90% |
| AKY | 93% |
| RTK | 90% |

| Substance | % of Max Slope |
| --- | --- |
| RSK | 90% |
| VRF | 93% |
| RRT | 93% |
| RKF | 92% |
| VKS | 90% |
| KKS | 93% |
| ISK | 89% |
| KKY | 92% |
| ITK | 89% |
| VKT | 90% |
| VKF | 93% |
| LSK | 89% |
| KRT | 93% |
| RKS | 93% |
| KKT | 93% |
| ITR | 89% |
| KSK | 90% |
| PRK | 100% |
| RSR | 90% |
| PKR | 100% |
| PRR | 100% |
| PKK | 100% |
| RRF | 92% |
| KRF | 92% |
| AKT | 90% |

same assay, conditions: LEP (X); pooled FRET screening; failed cleavable sequences

| Substance | % of Max Slope |
| --- | --- |
| VRY | 0% |
| PRK | 0% |
| PKR | 0% |
| PRR | 0% |
| PKK | 0% |

same assay, conditions: insect (LEP) simulated gut environment

| Substance | LEP cleavage (in words) |
| --- | --- |
| ALKLFV (cleavable linker) | rapid |
| IFVRLR (cleavable linker) | rapid |

system: gut enzymes of Southern Corn Rootworm; test: FRET peptide cleavage by coleopteran gut enzymes (COLEOP); details: COLEOP (X); pooled FRET screening Round 1; slope of fluorescence over 10 minutes, steepest slope = 100%; representative cleavable sequences

| Substance | % of Max Slope |
| --- | --- |
| IQR | 56% |
| IKS | 68% |
| LQK | 56% |
| NLK | 74% |
| LQR | 56% |
| IKQ | 100% |
| VIR | 70% |
| IRQ | 100% |
| ALK | 70% |
| IRT | 68% |
| RLK | 83% |
| LRT | 68% |
| KLK | 83% |
| QIK | 74% |
| VLR | 70% |
| KIR | 83% |
| NIR | 74% |
| QIR | 74% |
| IKA | 56% |
| KIK | 83% |
| IKN | 100% |
| AIR | 70% |
| VLK | 70% |
| LNR | 56% |
| LKQ | 100% |

| Substance | % of Max Slope |
| --- | --- |
| QLR | 74% |
| RIR | 83% |
| RLR | 83% |
| IKT | 68% |
| LKN | 100% |
| LRN | 100% |
| QLK | 74% |
| IKV | 56% |
| IQK | 56% |
| NLR | 74% |
| KLR | 83% |
| NIK | 74% |
| LRS | 68% |
| RIK | 83% |
| INR | 56% |
| AIK | 70% |
| LKS | 68% |
| IRN | 100% |
| IRS | 68% |
| LNK | 56% |
| LRQ | 100% |
| INK | 56% |
| ALR | 70% |
| LKT | 68% |
| VIK | 70% |

same assay, conditions: COLEOP (X); pooled FRET screening; failed cleavable sequences

| Substance | % of Max Slope |
| --- | --- |
| IKQ | 0% |
| IRQ | 0% |
| IKN | 0% |
| LKN | −2% |
| IRN | 0% |

same assay, conditions: insect (COLEOP) simulated gut environment

| Substance | COLEOP cleavage (in words) |
| --- | --- |
| ALKLFV (cleavable linker) | rapid |
| IFVRLR (cleavable linker) | rapid |
